The test system of assay [1] is 4T1 mouse breast carcinoma cells. The assay is described as follows: Tumorsphere formation, size and cell number of cells encapsulated in the gel. The format is cell-based. The following applies: 9 days; for tumorsphere formation: 4T1 in 5 kPa PEGDA gel with peptide conjugated (conj) or dissolved (dis); for cell number density compared with the gel without peptide: 4T1 in PEGDA gel with peptide conjugated (conj) or dissolved (dis). The protocol:
4T1 and MCF7 tumor cells were cultured in RMPI-1640 medium with 10% FBS under 5% CO2 at 37° C. Cells were trypsinized after reaching 70% confluency. PEGDA macromer was dissolved in PBS and sterilized by filtration with a 0.2 μm filter. Next, 1.4×10^5/mL 4T1 or MCF7 cells suspended in PBS were added to the macromer solution with final PEGDA concentrations ranging 5-25 wt % and mixed gently with a pre-sterilized glass rod. The cell-suspended hydrogel precursor solution was crosslinked with UV for 10 min. After crosslinking, the gel was cut into disks and incubated in stem cell culture medium in ultra-low attachment tissue culture plates under 5% CO2. The stem cell medium consisted of DMEM-F12 supplemented with 0.4% bovine serum albumin (BSA), 5 μg/mL insulin, 40 ng/mL basic fibroblast growth factor (bFGF), 20 ng/mL EGF, 5% horse serum, 100 U/mL penicillin, and 100 μg/mL streptomycin.
To determine cell viability, gels were stained with cAM/EthD live/dead dyes 2 days after encapsulation to image live and dead cells, respectively. Stained samples were imaged with an inverted fluorescent microscope (Nikon Eclipse Ti-ε, Nikon, Melville, N.Y.). Cell viability was quantified by dividing the image into smaller squares and counting the number of live and dead cells. At each time point, the gel samples were removed from the culture media and stained for imaging. Samples were rinsed twice with PBS and fixed with 4% paraformaldehyde for 3 h. After fixation, cells were permeabilized using PBS containing 0.1% Triton X-100 for 5 min. After rinsing, cells were incubated with Alexa 488 phalloidin (1:200 dilution) and DAPI (1:5000 dilution) to stain actin filaments of the cell cytoskeleton and cell nuclei, respectively. Stained samples were imaged with a Nikon Eclipse Ti-ε inverted fluorescent microscope. For visualization of cell uniformity, a confocal fluorescent microscope (Zeiss LSM-510 META Axiovert, Carl Zeiss, Germany) was used to obtain 2D images (90 μm thick layers) of the stained gels in the direction of thickness. For determination of cell number, the gel samples were homogenized, cells were lysed, and aliquots were used to measure the double stranded DNA (dsDNA) content using a Quant-it PicoGreen assay. Briefly, an aliquot (100 μL) of the working solution was added to 100 μL of the cell lysate and incubated for 4 min at ambient conditions. The fluorescence of the solution was measured with a plate reader (Synergy HT, Bio-Tek, Winooski, Vt.) at emission and excitation wavelength of […], respectively. Measured fluorescent intensities were correlated to cell numbers using a calibration curve constructed with 4T1 or MCF7 cells of known concentration ranging from zero to […].
The tumor cells were cultured in RMPI-1640 medium with 10% FBS under 5% CO2 at 37° C. Cells were trypsinized after reaching 70% confluency. The synthesized acrylamide-terminated peptides were added to the PEGDA macromer solution and the mixture was sterilized by filtration (220 nm filter). Next, 1.4×10^5/ml cells (4T1, MCF7, or MCF10a) were added to the macromer solution and mixed gently with a pre-sterilized glass rod. The cell-suspended hydrogel precursor solution was crosslinked with UV for 10 min as described above. After cross-linking, the gel was cut into disks and incubated in stem cell culture medium on ultra-low attachment tissue culture plates under 5% CO2. The stem cell medium consisted of DMEM-F12 supplemented with 0.4% BSA, 5 μg/ml insulin, 40 ng/ml bFGF, 20 ng/ml EGF, 5% horse serum, 100 U/ml penicillin, and 100 μg/ml streptomycin. For growing tumorspheres in suspension, trypsinized cells (4T1 or MCF7) were cultured on ultra-low attachment tissue culture plates with stem cell culture medium under 5% CO2 at 37° C.
To determine cell viability, gels were stained with cAM and EthD dyes after cell encapsulation to image live and dead cells, respectively. […]

For assay [2], the system named is 4T1 cells. The assay is described as follows: RT-qPCR mRNA expression of CSC related markers in encapsulated cells. It counts as cell-based, mouse. Conditions: 4T1 in PEGDA gel with peptide, 9 days. The protocol: Total cellular RNA of the gel samples was isolated using TRIzol (Invitrogen). 250 ng of the extracted purified RNA was reverse transcribed to cDNA by SuperScript II Reverse Transcriptase (Invitrogen) with the random primers. The obtained cDNA was subjected to real time quantitative polymerase chain reaction (RT-qPCR) amplification with appropriate gene specific primers. RT-qPCR was performed to analyze the differential expression of CSC markers CD44 (4T1 and MCF7), CD24 (4T1), ABCG2 (4T1 and MCF7), and SCA1 (4T1) genes with SYBR green RealMasterMix (Eppendorf, Hamburg, Germany) using Bio-Rad iCycler PCR system (Bio-Rad, Hercules, Calif.). The expression level of GAPDH gene was used as an internal control. The primers for real time PCR were designed by Primer 3 software. The following forward and reverse primers synthesized by Integrated DNA technologies (Coralville, Iowa) were used: mouse GAPDH: forward 5′-CATGGCCTTCCGTGTTCCTA-3′ (SEQ ID NO: 1) and reverse 5′-CCTGCTTCACCACCTTCTTGA-3′ (SEQ ID NO: 2); mouse CD44: forward 5′-GAATGTAACCTGCCGCTACG-3′ (SEQ ID NO: 3) and reverse 5′-GGA GGT GTT GGA CGT GAC-3′ (SEQ ID NO: 4); mouse CD24: forward 5′-CTTCTGGCACTGCTCCTACC-3′ (SEQ ID NO: 5) and reverse 5′-GAGAGAGAGCCAGGAGACCA-3′ (SEQ ID NO: 6); mouse ABCG2: forward 5′-AGCAGCAAGGAAAGATCCAA-3′ (SEQ ID NO: 7) and reverse 5′-GGAATACCGAGGCTGATGAA-3′ (SEQ ID NO: 8); mouse SCA1: forward 5′-TGG ACA CTT CTC ACA CTA-3′ (SEQ ID NO: 9) and reverse 5′-CAGAGCAAGAGGGTCTGCAGGAG-3′ (SEQ ID NO: 10); human GAPDH forward 5′-GAGTCAACGGATTTGGTCGT-3′ (SEQ ID NO: 11) and reverse 5′-TTGATTTTGGAGGGATCTCG-3′ (SEQ ID NO: 12); human CD44 forward 5′-GGCTTTCAATAGCACCTTGC-3′ (SEQ ID NO: 13) and reverse 5′-ACACCCCTGTGTTGTTTGCT-3′ (SEQ ID NO: 14); human ABCG2 forward 5′-CACCTTATTGGCCTCAGGAA-3′ (SEQ ID NO: 15) and reverse 5′-CCTGCTTGGAAGGCTCTATG-3′ (SEQ ID NO: 16). The relative gene expression levels were quantified by the 2^-ddCT method as described. The relative gene expressions were expressed as fold difference compared with that at time zero.
Total cellular RNA of the gel samples was isolated using TRIzol (Invitrogen). 250 ng of the extracted purified RNA was reverse transcribed to cDNA by SuperScript II Reverse Transcriptase (Invitrogen) with the random primers. The obtained cDNA was subjected to real time quantitative polymerase chain reaction (RT-qPCR) amplification with the appropriate gene specific primers. RT-qPCR was performed to analyze the differential expression of CSC markers CD44, CD24, ABCG2, and SCA1 genes with SYBR green RealMasterMix (Eppendorf, Hamburg, Germany) using Bio-Rad iCycler PCR system (Bio-Rad, Hercules, Calif.). The expression level of GAPDH gene was used as an internal control. The primers for real time PCR were designed by Primer 3 software. The forward and reverse primer sequences, listed in the table below, were synthesized by Integrated DNA technologies (Coralville, Iowa). The relative gene expression levels were quantified by the 2^(−ΔΔCT) method. Briefly, ΔCT was calculated as ΔCT=CT^target gene−CT^GAPDH. ΔΔCT of the target gene was calculated as ΔΔCT=ΔCT^experimental group−ΔCT^reference group. The reference was the first time point (right after cells were encapsulated in the gel). The relative gene expression (fold-change compared to the reference time point) was calculated as 2^(−ΔΔCT).
(In general: In qPCR the cycle at which signal appears reflects the starting amount.)

With “RLVSYNGIIFFLK [dis CD44BP, CD44BP dissolved in the gel and in the culture medium]”, in assay [1], the tumorsphere formation entry is recorded as “did not inhibit sphere formation” and the “cell number density compared with the gel without peptide” value is given as “lower”. For the same sequence, in assay [2], the “ABCG2 mRNA marker expression” value was “high expressions”, the “CD24 mRNA marker expression” value is recorded as “low expression”, the “CD44 mRNA marker expression” value is recorded as “high expressions” and the “SCA1 mRNA marker expression” value was “high expressions”.

Turning to “VLFGFLKIYSRIN [conj s-CD44BP, reference compound]”, in assay [1], the tumorsphere formation entry is “no significant effect” and the “cell number density compared with the gel without peptide” value is “lower”. Besides, in assay [2], the “ABCG2 mRNA marker expression” value was “high expressions”, the “CD24 mRNA marker expression” value was “low expression”, the “CD44 mRNA marker expression” value is listed as “high expressions” and the “SCA1 mRNA marker expression” value is “high expressions”.

(Values after patent US10494610B2, “Three dimensional matrix for cancer stem cells” (UNIVERSITY OF SOUTH CAROLINA, priority 2013, dated 2019).)
